Measurements taken from patent US10745388B2, “Indazole compounds and uses thereof” (Incyte Corporation, priority 2018, dated 2020).

What follows are compounds tested against HPK1 (Homo sapiens (Human), UniProt Q92918) (assay: HPK1 Kinase Binding Assay). Conditions: LanthaScreen tracer 222 binding, active HPK1, one hour incubation at 25° C.
Procedure: A stock solution of 1 mM test compound was prepared in DMSO. The compound plate was prepared by 3-fold and 11-point serial dilutions. 0.1 μL of the compound in DMSO was transferred from the compound plate to the white 384 well polystyrene plates. The assay buffer contained 50 mM HEPES, pH 7.5, 0.01% Tween-20, 5 mM MgCl2, 0.01% BSA, and 5 mM DTT. 5 μL of 4 nM active HPK1 (SignalChem M23-11G) prepared in the buffer was added to the plate. The enzyme concentration given was based on the given stock concentration reported by the vender. 5 μL of 18 nM tracer 222 (ThermoFisher PV6121) and 4 nM LanthaScreen Eu-Anti GST antibody (ThermoFisher PV5595) were added. After one hour incubation at 25° C., the plates were read on a PHERAstar FS plate reader (BMG Labtech). Ki values were determined.

Sequence of HPK1 (Q92918 1-346 limits assumed): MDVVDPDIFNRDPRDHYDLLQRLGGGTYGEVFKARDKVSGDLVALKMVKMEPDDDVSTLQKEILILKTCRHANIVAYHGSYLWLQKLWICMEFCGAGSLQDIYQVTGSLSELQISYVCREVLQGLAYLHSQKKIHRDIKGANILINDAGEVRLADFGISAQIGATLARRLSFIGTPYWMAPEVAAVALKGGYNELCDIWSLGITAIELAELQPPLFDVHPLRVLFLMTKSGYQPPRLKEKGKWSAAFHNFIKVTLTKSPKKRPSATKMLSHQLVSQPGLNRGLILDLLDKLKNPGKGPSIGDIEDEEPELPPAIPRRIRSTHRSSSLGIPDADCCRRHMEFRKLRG

Compound	Ki [µM]
COc1cccc(F)c1-c1nccc(C(=O)Nc2ccc3nn(C)cc3c2N(C)CCO)n1 [1, Peak 1]	≤ 0.1
COc1cccc(F)c1-c1nccc(C(=O)Nc2ccc3c(cnn3C)c2N(C)C2CCN(C)CC2)n1 [Example 2, 2-(2-Fluoro-6-methoxyphenyl)-N-(1-methyl-4-(methyl(1-methylpiperidin-4-yl)amino)-1H-indazol-5-yl)pyrimidine-4-carboxamide]	≤ 0.1
COc1cccc(F)c1-c1nccc(C(=O)Nc2ccc3c(cnn3C)c2N(C)C2CC2)n1 [Example 3, N-(4-(Cyclopropyl(methyl)amino)-1-methyl-1H-indazol-5-yl)-2-(2-fluoro-6-methoxyphenyl)pyrimidine-4-carboxamide]	≤ 0.1
COc1cccc(F)c1-c1nccc(C(=O)Nc2ccc3c(cnn3C)c2N(C)C)n1 [Example 4, N-(4-(Dimethylamino)-1-methyl-1H-indazol-5-yl)-2-(2-fluoro-6-methoxyphenyl)pyrimidine-4-carboxamide]	≤ 0.1
COc1cccc(F)c1-c1nccc(C(=O)Nc2ccc3c(cnn3C)c2N(C)Cc2ccccc2)n1 [Example 5, N-(4-(Benzyl(methyl)amino)-1-methyl-1H-indazol-5-yl)-2-(2-fluoro-6-methoxyphenyl)pyrimidine-4-carboxamide]	≤ 0.1
COc1cccc(F)c1-c1nccc(C(=O)Nc2ccc3c(cnn3C)c2N(C)Cc2cccnc2)n1 [Example 6, 2-(2-Fluoro-6-methoxyphenyl)-N-(1-methyl-4-(methyl(pyridin-3-ylmethyl)amino)-1H-indazol-5-yl)pyrimidine-4-carboxamide]	≤ 0.1
COc1cccc(F)c1-c1nccc(C(=O)Nc2ccc3c(cnn3C)c2N(C)C2CCOCC2)n1 [Example 7]	≤ 0.1

Results, then the compound that gave them:

Ki [µM]	Compound
≤ 0.1	COc1cccc(F)c1-c1nccc(C(=O)Nc2ccc3c(cnn3C)c2N(C)CC(C)(C)O)n1 [Example 8, 2-(2-Fluoro-6-methoxyphenyl)-N-(4-((2-hydroxy-2-methylpropyl)(methyl)amino)-1-methyl-1H-indazol-5-yl)pyrimidine-4-carboxamide]
≤ 0.1	COc1cccc(F)c1-c1nccc(C(=O)Nc2ccc3c(cnn3C)c2N(C)CC2CCCO2)n1 (stereo not drawn) [Example 9, 2-(2-Fluoro-6-methoxyphenyl)-N-(1-methyl-4-(methyl((tetrahydrofuran-2-yl)methyl)amino)-1H-indazol-5-yl)pyrimidine-4-carboxamide]
0.5 to 5	COc1cccc(F)c1-c1nccc(C(=O)Nc2ccc3c(cnn3C)c2N(C)CC2(O)COC2)n1 [Example 10, 2-(2-Fluoro-6-methoxyphenyl)-N-(4-(((3-hydroxyoxetan-3-yl)methyl)(methyl)amino)-1-methyl-1H-indazol-5-yl)pyrimidine-4-carboxamide]
≤ 0.1	COc1cccc(F)c1-c1nccc(C(=O)Nc2ccc3c(cnn3C)c2N(C)[C@H]2CCNC2)n1 [Example 11, (S)-2-(2-Fluoro-6-methoxyphenyl)-N-(1-methyl-4-(methyl(pyrrolidin-3-yl)amino)-1H-indazol-5-yl)pyrimidine-4-carboxamide]
≤ 0.1	COc1cccc(F)c1-c1nccc(C(=O)Nc2ccc3c(cnn3C)c2N(C)[C@H]2CCN(C(C)=O)C2)n1 [Example 12, (S)—N-(4-((1-acetylpyrrolidin-3-yl)(methyl)amino)-1-methyl-1H-indazol-5-yl)-2-(2-fluoro-6-methoxyphenyl)pyrimidine-4-carboxamide]
≤ 0.1	COc1cccc(F)c1-c1nccc(C(=O)Nc2ccc3c(cnn3C)c2N(C)[C@H]2CCN(S(C)(=O)=O)C2)n1 [Example 13, (S)-2-(2-Fluoro-6-methoxyphenyl)-N-(1-methyl-4-(methyl(1-(methylsulfonyl)pyrrolidin-3-yl)amino)-1H-indazol-5-yl)pyrimidine-4-carboxamide]
≤ 0.1	COc1cccc(F)c1-c1nccc(C(=O)Nc2ccc3c(cnn3C)c2N(C)[C@H]2CCN(C(=O)N(C)C)C2)n1 [Example 14, (S)—N-(4-((1-(Dimethylcarbamoyl)pyrrolidin-3-yl)(methyl)amino)-1-methyl-1H-indazol-5-yl)-2-(2-fluoro-6-methoxyphenyl)pyrimidine-4-carboxamide]
≤ 0.1	CNCc1ccccc1-c1c(NC(=O)c2ccnc(-c3c(F)cccc3OC)n2)ccc2c1cnn2C [Example 15, 2-(2-Fluoro-6-methoxyphenyl)-N-(1-methyl-4-(2-((methylamino)methyl)phenyl)-1H-indazol-5-yl)pyrimidine-4-carboxamide]
